Reference: patent US20220290237A1, “METHOD FOR PREDICTING THE RESPONSE OF ANTIPSYCHOTIC DRUGS” (INSERM (INSTITUT NATIONAL DE LA SANTÉ ET DE LA RECHERCHE …, priority 2019, published 2022)

Assays:
[1] = tested on: total RNA from PBMCs; assay: RNA-seq gene expression before and after 4 weeks of amisulpride treatment; assay type: in vivo, human
Text: (§1) The cohort analysed in this study was obtained from the OPTiMiSE clinical trial (http://www.optimisetrial.eu) (29). After providing written informed consent, 491 patients with a first episode psychosis were included and 453 started medication. All patients were diagnosed with schizophrenia, schizophreniform disorder or schizoaffective disorder according to the Diagnostic and Statistical Manual of Mental Disorders, Fourth Edition (DSM-IV) and confirmed on the basis of the Mini International Neuropsychiatric Interview Plus (M.I.N.I. Plus) (30) (table 4). At baseline, patients were medication-naïve or minimally-treated (any antipsychotic medication used for […] 2 weeks in the previous year or for a total of 6 weeks in their lifetime) and were ill for no longer than 2 years. Only subjects involved in the single-treatment arm (phase 1) of the trial were considered for this study (29). All patients were treated for 4 weeks with amisulpride (200-800 mg/day orally). At the end of the 4-week treatment, the blood concentration of antipsychotic used has been determined. This measurement provided a reliable indication of the treatment compliance of individual patients.
A DNase digestion procedure was added after extraction. Total RNA was purified using the RNA Clean & Concentrator™-5 kit following the manufacturer's instructions (Zymo Research Corp., Irvine, USA). RNA quantification was performed on a NanoDrop™ 8000 spectrophotometer, in duplicate. The quality and integrity of the RNA samples were assessed using an Agilent Bioanalyzer 2100 and the RNA6000 Nano Labchip kit (Agilent Technologies). Only samples with an RNA integrity number (RIN) higher than 7 were selected. Three hundred and seventy-six RNA samples fulfilled quality control criteria for RNA-seq analyses, corresponding to two RNA samples (one at inclusion and one after 4 weeks of treatment) for 188 subjects. Forty-eight additional RNAs were available for replication studies, in 24 independent subjects.
All libraries were prepared using the Illumina TruSeq Stranded Total RNA with Ribo-Zero Globin kit (Illumina Inc., San Diego, Calif., U.S.A.), which removes ribosomal RNA and globin mRNA. Libraries were prepared using one microgram of total RNA as initial input and following the standard protocols. After library quality control, 2×100 bp paired-end (PE) sequencing was performed on a HiSeq4000 system (Illumina), pooling a maximum of 6 samples on each lane, in order to reach 40 to 50 million of PE-reads for each sample. The Illumina pipeline was used to generate raw RNA sequencing data (fastq files) for each sample. Sequence quality controls were performed, using FastQC and in-house bioinformatics pipelines, from a sampling of 2×10 million reads in order to assess the levels of read duplicates, adapters, remaining rRNA and the GC content. Reads were trimmed for adapters and low-quality bases (Phred quality score <30) using Trimmomatic software (v.0.32). Reads were then mapped to the Genome Reference Consortium human genome assembly 37 (GRCh37) reference genome (hg19) using Tophat software (v.2.0.13). Read mapping quality was assessed using RNA-SeQC software. Then, gene-level quantification in read counts was performed by HTSeq software (v.0.6.1), using gene annotation from Ensembl v.86. All downstream analyses were conducted using the statistical software R (v.3.2.4) and Bioconductor R packages. Genes with counts-per million (cpm) below 1 in more than two third of the samples were considered unexpressed and removed from the analysis using edgeR package (v.3.12.1). Raw gene counts matrix has been normalized to account for differences in sequencing depth and RNA composition using the “median ratio” method implemented in the DESeq2 package (v.1.16.1). To avoid batch effects as confounding factors, all subjects had their 2 time-points in a same batch. […]

[2] = Clinical response (total PANSS score change) over 4 weeks of amisulpride, OPTiMiSE first episode psychosis; assay type: in vivo, human
Text: as §1
A clinical response to treatment can be defined according to many criteria. […] Note that good responders were slightly older than poor responders with a lower duration of untreated psychosis and more positive symptoms (data not shown).

[3] = good responders (n = 113), 4 weeks amisulpride
[4] = poor responders (n = 75), 4 weeks amisulpride
[5] = admixture model of total PANSS score change over 4 weeks of treatment, 200-800 mg/day orally
[6] = of 188 subjects, 4 weeks of treatment

For `CCN1CCCC1CNC(=O)c1cc(S(=O)(=O)CC)c(N)cc1OC` (stereo not drawn) [amisulpride, 4-amino-N-((1-ethyl-2-pyrrolidinyl)methyl)-5-(etgylsulfonyl)-2-methoxybenzamide], the “FC, fold-change at week 4 relative to the expression level at inclusion: GALNT14” value ([1]; GALNT14, poor responders (n = 75), 4 weeks amisulpride) was 1.04, the “FC, fold-change at week 4 relative to the expression level at inclusion: GUCY1B3” value [1, 3] was 1.14 and the “FC, fold-change at week 4 relative to the expression level at inclusion: GUCY1B3” value [1, 4] was 1.05. For the same compound, the “FC, fold-change at week 4 relative to the expression level at inclusion: HOMER3” value [1, 3] was 0.84, the “FC, fold-change at week 4 relative to the expression level at inclusion: HOMER3” value [1, 4] was 1.09 and the “FC, fold-change at week 4 relative to the expression level at inclusion: KAZN” value [1, 3] was 0.83. For the same compound, the “FC, fold-change at week 4 relative to the expression level at inclusion: KAZN” value [1, 4] was 0.94, the “FC, fold-change at week 4 relative to the expression level at inclusion: KIAA0319” value [1, 3] was 0.83 and the “FC, fold-change at week 4 relative to the expression level at inclusion: KIAA0319” value [1, 4] was 0.94. The “FC, fold-change at week 4 relative to the expression level at inclusion: LINC00963” value [1, 3] was 0.91, the “FC, fold-change at week 4 relative to the expression level at inclusion: LINC00963” value [1, 4] was 1.08 and the “FC, fold-change at week 4 relative to the expression level at inclusion: NFE4” value [1, 3] was 0.83. For the same compound, the “FC, fold-change at week 4 relative to the expression level at inclusion: NFE4” value [1, 4] was 0.95, the “FC, fold-change at week 4 relative to the expression level at inclusion: NLRP6” value [1, 3] was 0.81 and the “FC, fold-change at week 4 relative to the expression level at inclusion: NLRP6” value [1, 4] was 1.09. For the same compound, the “FC, fold-change at week 4 relative to the expression level at inclusion: NLRP12” value [1, 3] was 0.87, the “FC, fold-change at week 4 relative to the expression level at inclusion: NLRP12” value [1, 4] was 1.08 and the “FC, fold-change at week 4 relative to the expression level at inclusion: P2RY12” value [1, 3] was 1.14. For the same compound, the “FC, fold-change at week 4 relative to the expression level at inclusion: P2RY12” value [1, 4] was 1.10, the “FC, fold-change at week 4 relative to the expression level at inclusion: P4HA2” value [1, 3] was 0.89 and the “FC, fold-change at week 4 relative to the expression level at inclusion: P4HA2” value [1, 4] was 1.04. For the same compound, the “FC, fold-change at week 4 relative to the expression level at inclusion: PLB1” value [1, 3] was 0.85, the “FC, fold-change at week 4 relative to the expression level at inclusion: PLB1” value [1, 4] was 0.99 and the “FC, fold-change at week 4 relative to the expression level at inclusion: SLC4A4” value [1, 3] was 1.15. For the same compound, the “FC, fold-change at week 4 relative to the expression level at inclusion: SLC4A4” value [1, 4] was 0.93, the “FC, fold-change at week 4 relative to the expression level at inclusion: TRPC6” value [1, 3] was 1.26 and the “FC, fold-change at week 4 relative to the expression level at inclusion: TRPC6” value [1, 4] was 0.97. The “FC, fold-change at week 4 relative to the expression level at inclusion: WLS” value [1, 3] was 0.87, the “FC, fold-change at week 4 relative to the expression level at inclusion: WLS” value [1, 4] was 0.98 and the “DEGs before vs after treatment that survived BH-correction” value ([1]; good responders only, FDR threshold of 0.1, 16,204 genes expressed in PBMCs) was 32 genes. For the same compound, the “proportion of good responders” value [2, 5] was 56%, the “proportion of poor responders” value [2, 5] was 44% and the “mean reduction of total PANSS score” value ([2]; good responders subpopulation of the admixture model, 4 weeks of treatment) was 36.3%. The “patients with a less than 20% reduction in total PANSS score” value [2, 6] was 75 patients, the “patients with a more than 20% reduction in total PANSS score” value [2, 6] was 113 patients and the “mean PANSS total reduction” value ([2]; poor responders subpopulation of the admixture model, 4 weeks of treatment) was 13.0%.
